Results as given in US7074789B2, “Kinase inhibitors” (Amgen Inc., priority 1999, dated 2006).
pIC50: −log10 of the molar value.

Tests used:
Type in all cases: biochemical
Tek = molecular target: T1, Tek (Homo sapiens, UniProt Q02763); assay: Kinase inhibition assay (33P transfer), Tek; details: read-out: Tek-1
T1 construct: Kinases are expressed as either kinase domains or full length constructs; made in house
Summary of the method: (§1)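 IC50: inhibitor concentration lowering 33P incorporation into immobilised substrate by 50%. Label transferred from ATP to poly(Glu,Tyr) 4:1 or poly(Arg,Ser) 3:1 is measured after a 0.5% phosphoric acid wash by liquid scintillation.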

c-Met = molecular target: T2, c-Met (Homo sapiens, UniProt P08581); assay: Kinase inhibition assay (33P transfer), c-Met; details: Table 2, kinase inhibition class; read-out: Met-1
T2 construct: Kinases are expressed as either kinase domains or full length constructs; made in house
T2 sequence (P08581 25-1390): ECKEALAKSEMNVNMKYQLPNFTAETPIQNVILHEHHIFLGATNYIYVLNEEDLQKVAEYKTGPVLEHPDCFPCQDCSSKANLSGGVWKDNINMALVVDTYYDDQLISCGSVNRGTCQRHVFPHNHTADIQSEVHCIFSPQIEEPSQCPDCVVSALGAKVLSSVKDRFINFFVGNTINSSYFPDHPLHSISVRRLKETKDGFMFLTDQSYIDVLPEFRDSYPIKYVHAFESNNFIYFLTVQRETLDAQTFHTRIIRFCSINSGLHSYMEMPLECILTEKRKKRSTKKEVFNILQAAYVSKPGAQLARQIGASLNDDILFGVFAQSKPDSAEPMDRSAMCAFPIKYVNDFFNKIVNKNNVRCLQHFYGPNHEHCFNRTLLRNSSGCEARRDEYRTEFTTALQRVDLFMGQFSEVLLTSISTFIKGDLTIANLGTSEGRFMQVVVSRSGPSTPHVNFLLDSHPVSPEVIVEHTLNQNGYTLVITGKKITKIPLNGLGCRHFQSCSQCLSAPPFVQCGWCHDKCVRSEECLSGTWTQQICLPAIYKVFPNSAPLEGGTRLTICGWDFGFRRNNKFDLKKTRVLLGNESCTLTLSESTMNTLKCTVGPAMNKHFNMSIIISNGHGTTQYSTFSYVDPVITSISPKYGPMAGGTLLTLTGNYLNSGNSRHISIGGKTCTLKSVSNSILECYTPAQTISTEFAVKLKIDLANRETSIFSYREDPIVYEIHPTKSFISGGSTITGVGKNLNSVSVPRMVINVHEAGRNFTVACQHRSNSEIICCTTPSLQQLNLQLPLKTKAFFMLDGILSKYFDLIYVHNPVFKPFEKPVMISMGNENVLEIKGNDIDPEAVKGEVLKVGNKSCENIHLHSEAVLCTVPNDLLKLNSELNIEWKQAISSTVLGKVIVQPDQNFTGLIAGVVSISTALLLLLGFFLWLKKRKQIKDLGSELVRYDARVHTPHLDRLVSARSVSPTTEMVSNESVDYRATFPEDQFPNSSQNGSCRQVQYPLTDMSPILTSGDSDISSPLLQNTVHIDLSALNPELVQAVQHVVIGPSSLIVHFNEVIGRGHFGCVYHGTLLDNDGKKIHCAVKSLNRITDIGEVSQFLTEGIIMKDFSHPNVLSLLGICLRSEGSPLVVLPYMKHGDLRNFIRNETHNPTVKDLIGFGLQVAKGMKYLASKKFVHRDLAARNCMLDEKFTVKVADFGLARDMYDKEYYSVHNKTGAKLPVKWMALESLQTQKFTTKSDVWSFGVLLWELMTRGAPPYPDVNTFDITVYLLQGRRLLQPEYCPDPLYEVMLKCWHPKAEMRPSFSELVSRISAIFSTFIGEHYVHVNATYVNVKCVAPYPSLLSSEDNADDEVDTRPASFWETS
Summary of the method: as §1

EGFR = molecular target: T3, EGFR (Homo sapiens, UniProt P00533); assay: Kinase inhibition assay (33P transfer), EGFR; details: Table 2, kinase inhibition class; read-out: EGFR-1
T3 construct: Kinases are expressed as either kinase domains or full length constructs; made in house
T3 sequence (P00533 25-1210, species assumed): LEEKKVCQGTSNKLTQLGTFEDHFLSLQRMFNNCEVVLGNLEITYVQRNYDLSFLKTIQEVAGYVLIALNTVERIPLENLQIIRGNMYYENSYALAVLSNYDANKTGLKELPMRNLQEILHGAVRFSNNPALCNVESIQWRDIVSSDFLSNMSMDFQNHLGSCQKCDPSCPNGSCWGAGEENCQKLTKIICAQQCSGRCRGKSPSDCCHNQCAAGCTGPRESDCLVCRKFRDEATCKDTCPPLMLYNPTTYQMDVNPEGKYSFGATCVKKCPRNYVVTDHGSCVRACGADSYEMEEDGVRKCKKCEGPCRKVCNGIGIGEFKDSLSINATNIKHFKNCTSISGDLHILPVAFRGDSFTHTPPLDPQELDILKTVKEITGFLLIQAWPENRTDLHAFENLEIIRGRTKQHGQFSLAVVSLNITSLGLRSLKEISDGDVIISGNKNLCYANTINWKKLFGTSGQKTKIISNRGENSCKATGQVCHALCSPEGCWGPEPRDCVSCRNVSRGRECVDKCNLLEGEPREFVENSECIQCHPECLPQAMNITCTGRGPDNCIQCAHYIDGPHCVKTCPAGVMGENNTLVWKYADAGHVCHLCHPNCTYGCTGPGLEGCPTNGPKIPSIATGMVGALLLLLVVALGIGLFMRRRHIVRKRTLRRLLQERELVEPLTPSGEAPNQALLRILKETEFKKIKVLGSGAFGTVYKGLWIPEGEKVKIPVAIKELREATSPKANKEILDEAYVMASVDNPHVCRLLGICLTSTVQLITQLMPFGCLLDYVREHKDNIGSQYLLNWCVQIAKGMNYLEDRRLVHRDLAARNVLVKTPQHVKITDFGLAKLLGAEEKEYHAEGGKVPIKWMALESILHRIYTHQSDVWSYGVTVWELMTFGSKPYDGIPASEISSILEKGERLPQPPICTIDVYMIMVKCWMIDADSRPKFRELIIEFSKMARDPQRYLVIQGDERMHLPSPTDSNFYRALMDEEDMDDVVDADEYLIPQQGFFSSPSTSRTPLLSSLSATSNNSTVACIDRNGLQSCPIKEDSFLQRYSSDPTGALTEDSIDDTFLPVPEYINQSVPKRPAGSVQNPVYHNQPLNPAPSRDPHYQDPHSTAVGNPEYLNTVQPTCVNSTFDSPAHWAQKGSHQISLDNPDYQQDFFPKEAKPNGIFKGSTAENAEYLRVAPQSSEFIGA
Summary of the method: as §1

Lck = molecular target: T4, Lck (Homo sapiens, UniProt P06239); assay: Kinase inhibition assay (33P transfer), Lck; details: Table 3; read-out: Lck-1
T4 construct: Kinases are expressed as either kinase domains or full length constructs; made in house
T4 sequence (P06239 whole entry, species assumed, the tested form may be a part): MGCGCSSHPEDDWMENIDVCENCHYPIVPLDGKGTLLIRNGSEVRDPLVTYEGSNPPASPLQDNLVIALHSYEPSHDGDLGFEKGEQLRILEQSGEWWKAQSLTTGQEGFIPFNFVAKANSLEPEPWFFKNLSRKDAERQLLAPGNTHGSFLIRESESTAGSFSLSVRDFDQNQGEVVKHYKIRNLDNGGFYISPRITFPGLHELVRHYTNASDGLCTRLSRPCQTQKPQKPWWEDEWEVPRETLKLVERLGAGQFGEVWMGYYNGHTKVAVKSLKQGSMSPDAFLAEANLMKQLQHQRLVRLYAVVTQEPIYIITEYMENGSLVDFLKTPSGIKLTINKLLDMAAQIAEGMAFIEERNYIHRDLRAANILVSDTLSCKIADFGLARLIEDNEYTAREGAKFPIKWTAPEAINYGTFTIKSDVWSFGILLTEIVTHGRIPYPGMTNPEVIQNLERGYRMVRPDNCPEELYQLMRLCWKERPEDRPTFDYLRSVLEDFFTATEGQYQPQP
Summary of the method: (§2)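 Activity was read as 33P incorporation, counted by liquid scintillation after a 0.5% phosphoric acid wash, into poly(Glu,Tyr) 4:1 or poly(Arg,Ser) 3:1 substrates coated on plates. Enzymes were tagged (GST or polyHis) kinase domains or full-length proteins from bacterial or insect-cell expression, sometimes with regulatory polypeptides.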

Itk = molecular target: T5, Itk (Homo sapiens, UniProt Q08881); assay: Kinase inhibition assay (33P transfer), Itk; details: Table 3; read-out: Itk-1
T5 construct: Kinases are expressed as either kinase domains or full length constructs; made in house
T5 sequence (Q08881 1-620): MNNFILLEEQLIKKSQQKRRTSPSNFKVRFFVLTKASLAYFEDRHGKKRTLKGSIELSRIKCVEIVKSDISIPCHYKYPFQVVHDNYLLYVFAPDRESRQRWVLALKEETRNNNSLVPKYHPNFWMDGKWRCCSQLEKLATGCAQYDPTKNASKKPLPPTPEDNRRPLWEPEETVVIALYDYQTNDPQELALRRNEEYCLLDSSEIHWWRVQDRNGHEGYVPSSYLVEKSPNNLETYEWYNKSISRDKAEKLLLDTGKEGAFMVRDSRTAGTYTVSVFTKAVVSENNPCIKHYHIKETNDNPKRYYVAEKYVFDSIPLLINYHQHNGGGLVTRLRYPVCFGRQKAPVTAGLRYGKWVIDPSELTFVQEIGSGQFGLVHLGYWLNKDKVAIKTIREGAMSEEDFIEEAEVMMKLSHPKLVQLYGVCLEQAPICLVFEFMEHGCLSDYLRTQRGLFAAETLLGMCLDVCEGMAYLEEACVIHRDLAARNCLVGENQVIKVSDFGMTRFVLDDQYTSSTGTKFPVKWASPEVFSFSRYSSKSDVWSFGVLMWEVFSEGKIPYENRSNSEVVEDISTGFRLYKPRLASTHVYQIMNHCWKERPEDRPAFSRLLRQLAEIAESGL
Summary of the method: as §1

AKT = molecular target: T6, AKT (Homo sapiens, UniProt Q9Y243); assay: Kinase inhibition assay (33P transfer), AKT; details: Table 2, kinase inhibition class; read-out: AKT3-1
T6 construct: Kinases are expressed as either kinase domains or full length constructs; made in house
T6 sequence (Q9Y243 whole entry, the tested form may be a part): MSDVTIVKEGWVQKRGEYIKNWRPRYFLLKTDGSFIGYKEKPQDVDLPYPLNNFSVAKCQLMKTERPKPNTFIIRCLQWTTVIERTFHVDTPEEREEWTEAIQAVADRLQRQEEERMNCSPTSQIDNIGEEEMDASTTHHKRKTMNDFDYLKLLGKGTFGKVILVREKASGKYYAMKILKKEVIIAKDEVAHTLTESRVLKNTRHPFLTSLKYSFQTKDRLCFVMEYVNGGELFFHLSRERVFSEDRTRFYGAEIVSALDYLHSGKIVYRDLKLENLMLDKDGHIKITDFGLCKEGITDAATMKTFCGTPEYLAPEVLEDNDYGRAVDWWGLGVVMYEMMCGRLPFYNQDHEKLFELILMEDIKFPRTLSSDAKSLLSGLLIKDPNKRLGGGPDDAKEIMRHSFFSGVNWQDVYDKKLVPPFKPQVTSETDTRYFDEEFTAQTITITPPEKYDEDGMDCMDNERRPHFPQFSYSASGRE
Summary of the method: as §2

Kdr = molecular target: T7, Kdr (Homo sapiens, UniProt P35968); assay: Kinase inhibition assay (33P transfer), Kdr; details: Table 3; read-out: KDR-1
T7 construct: Kinases are expressed as either kinase domains or full length constructs; made in house
Summary of the method: as §2

EPHB4 = molecular target: T8, EPHB4 (Homo sapiens, UniProt P54760); assay: Kinase inhibition assay (33P transfer), EPHB4; details: read-out: EPHB4-1
T8 construct: Kinases are expressed as either kinase domains or full length constructs; made in house
T8 sequence (P54760 16-987): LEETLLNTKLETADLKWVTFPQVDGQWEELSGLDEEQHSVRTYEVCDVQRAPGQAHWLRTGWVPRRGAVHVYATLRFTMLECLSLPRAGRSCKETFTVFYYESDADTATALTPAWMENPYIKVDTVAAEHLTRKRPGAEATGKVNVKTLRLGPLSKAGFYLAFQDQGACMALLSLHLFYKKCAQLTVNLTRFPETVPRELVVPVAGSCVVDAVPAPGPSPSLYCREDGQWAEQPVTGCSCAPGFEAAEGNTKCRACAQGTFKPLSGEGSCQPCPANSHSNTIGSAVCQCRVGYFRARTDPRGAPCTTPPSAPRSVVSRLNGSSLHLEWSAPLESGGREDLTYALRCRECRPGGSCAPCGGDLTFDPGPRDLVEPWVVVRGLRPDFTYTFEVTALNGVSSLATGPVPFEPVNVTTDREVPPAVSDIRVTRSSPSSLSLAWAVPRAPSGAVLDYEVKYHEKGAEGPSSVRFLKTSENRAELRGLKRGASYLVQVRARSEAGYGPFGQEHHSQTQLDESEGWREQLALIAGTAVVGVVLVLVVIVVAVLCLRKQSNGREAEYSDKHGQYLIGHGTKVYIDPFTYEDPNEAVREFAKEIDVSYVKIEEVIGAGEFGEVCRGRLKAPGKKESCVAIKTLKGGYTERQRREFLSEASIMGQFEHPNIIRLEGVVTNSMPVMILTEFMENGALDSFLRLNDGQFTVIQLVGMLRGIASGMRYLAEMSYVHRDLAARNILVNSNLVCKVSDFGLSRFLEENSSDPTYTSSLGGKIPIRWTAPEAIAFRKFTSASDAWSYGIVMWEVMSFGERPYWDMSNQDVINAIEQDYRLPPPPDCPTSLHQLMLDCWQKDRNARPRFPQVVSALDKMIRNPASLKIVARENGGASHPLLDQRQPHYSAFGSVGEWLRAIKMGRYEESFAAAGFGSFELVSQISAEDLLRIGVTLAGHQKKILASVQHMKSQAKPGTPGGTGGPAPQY

Zap-70 = molecular target: T9, Zap-70 (Homo sapiens, UniProt P43403); assay: Kinase inhibition assay (33P transfer), Zap-70; details: Table 3; read-out: Zap-1
T9 construct: Kinases are expressed as either kinase domains or full length constructs; made in house
T9 sequence (P43403 1-619): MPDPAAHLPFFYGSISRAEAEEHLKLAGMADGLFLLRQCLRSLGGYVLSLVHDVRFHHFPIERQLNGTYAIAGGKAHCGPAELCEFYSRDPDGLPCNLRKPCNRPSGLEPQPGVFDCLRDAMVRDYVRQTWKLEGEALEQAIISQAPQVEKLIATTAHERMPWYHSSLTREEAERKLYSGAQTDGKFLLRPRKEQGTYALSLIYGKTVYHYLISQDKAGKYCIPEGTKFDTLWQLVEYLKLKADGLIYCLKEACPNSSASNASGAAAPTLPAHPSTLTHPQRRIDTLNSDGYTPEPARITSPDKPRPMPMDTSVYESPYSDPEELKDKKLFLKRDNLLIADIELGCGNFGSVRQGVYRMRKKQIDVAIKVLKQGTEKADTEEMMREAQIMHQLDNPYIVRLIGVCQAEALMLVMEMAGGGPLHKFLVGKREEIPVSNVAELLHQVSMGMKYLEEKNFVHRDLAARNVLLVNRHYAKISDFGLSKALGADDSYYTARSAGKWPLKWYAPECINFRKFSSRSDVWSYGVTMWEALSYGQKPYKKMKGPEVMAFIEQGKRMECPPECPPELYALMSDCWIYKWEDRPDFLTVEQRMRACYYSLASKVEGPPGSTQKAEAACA
Summary of the method: as §2

IGFR-1 = molecular target: T10, IGFR-1 (Homo sapiens, UniProt P08069); assay: Kinase inhibition assay (33P transfer), IGFR-1; details: Table 2, kinase inhibition class
T10 construct: Kinases are expressed as either kinase domains or full length constructs; made in house
T10 sequence (P08069 31-1367): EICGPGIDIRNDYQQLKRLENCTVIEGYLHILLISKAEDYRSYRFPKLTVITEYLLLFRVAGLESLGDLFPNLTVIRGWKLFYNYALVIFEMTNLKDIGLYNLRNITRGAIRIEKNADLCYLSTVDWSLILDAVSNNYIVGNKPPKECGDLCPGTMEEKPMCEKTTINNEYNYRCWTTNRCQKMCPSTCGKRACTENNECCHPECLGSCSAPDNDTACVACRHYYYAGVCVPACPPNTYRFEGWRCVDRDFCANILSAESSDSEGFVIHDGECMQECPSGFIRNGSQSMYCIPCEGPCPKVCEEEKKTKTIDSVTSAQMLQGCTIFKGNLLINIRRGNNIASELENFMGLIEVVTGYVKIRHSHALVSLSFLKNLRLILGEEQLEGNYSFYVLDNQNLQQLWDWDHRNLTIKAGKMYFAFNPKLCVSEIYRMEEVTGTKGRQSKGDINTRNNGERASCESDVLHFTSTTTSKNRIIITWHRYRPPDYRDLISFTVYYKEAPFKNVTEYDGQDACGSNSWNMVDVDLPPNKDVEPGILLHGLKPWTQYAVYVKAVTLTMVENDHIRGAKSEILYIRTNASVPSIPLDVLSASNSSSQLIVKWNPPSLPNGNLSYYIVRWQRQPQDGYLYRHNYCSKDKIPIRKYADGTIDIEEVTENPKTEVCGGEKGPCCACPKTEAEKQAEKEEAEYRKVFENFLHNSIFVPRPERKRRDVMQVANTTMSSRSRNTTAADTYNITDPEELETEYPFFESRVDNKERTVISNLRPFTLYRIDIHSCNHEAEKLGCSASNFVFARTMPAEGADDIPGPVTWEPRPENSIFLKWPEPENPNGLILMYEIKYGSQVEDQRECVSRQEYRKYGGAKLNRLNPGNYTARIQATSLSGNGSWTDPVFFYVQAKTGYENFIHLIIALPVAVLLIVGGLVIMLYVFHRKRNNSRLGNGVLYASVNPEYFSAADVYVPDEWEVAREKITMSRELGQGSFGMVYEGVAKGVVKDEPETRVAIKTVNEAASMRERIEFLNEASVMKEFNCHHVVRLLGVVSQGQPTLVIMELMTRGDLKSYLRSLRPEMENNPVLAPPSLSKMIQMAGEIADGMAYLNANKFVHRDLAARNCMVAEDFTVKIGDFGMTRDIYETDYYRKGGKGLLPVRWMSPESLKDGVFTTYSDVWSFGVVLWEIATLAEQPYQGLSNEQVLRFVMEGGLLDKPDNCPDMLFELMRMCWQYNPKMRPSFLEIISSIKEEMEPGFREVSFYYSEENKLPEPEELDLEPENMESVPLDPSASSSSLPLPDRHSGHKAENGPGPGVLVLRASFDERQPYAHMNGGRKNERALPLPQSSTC

ErbB4 = molecular target: T11, ErbB4 (Homo sapiens, UniProt Q15303); assay: Kinase inhibition assay (33P transfer), ErbB4; details: read-out: ErbB4-1
T11 construct: Kinases are expressed as either kinase domains or full length constructs; made in house

SMILES | pIC50 (Tek) | pIC50 (c-Met) | pIC50 (EGFR) | pIC50 (Lck) | pIC50 (Itk) | pIC50 (AKT) | pIC50 (Kdr) | pIC50 (EPHB4) | pIC50 (Zap-70) | pIC50 (IGFR-1) | pIC50 (ErbB4)
OCCCNc1cc(-c2ncnc(Nc3cccc(OC(F)(F)C(F)F)c3)n2)ccn1 [Compound 372] | < 4.99 | < 4.99 | < 4.99 | < 4.99 | < 4.99 | < 4.99 | < 4.99 | < 4.99 | < 4.99 | < 4.99 | 
O=c1[nH]c2ccccc2n1-c1ncnc(Nc2ccc(-c3cnco3)cc2)n1 [Compound 379] | < 4.92 | < 4.92 | < 4.92 | < 4.92 | < 4.92 | < 4.92 | 4.92 to 5.03 | < 4.92 | < 4.92 | < 4.92 | 
COc1cc(Nc2ncnc(Nc3ccc(O)cc3C)n2)cc(OC)c1OC [Compound 927] | < 4.93 | < 4.93 | 5.04 to 5.20 | 5.04 to 5.20 | < 4.93 | < 4.93 | 5.20 to 5.98 | < 4.93 | < 4.93 | < 4.93 | 
COc1cc(Nc2ncnc(Nc3cccc(C(=O)O)c3)n2)cc(OC)c1OC [Compound 933] |  | < 4.95 | > 6.00 | 5.22 to 6.00 | < 4.95 | < 4.95 | 5.22 to 6.00 | 5.06 to 5.22 | < 4.95 | 5.22 to 6.00 | 5.22 to 6.00
COc1cc(Nc2ncnc(Nc3ccc(C)c([N+](=O)[O-])c3)n2)cc(OC)c1OC [Compound 934] |  | < 4.96 | 5.24 to 6.01 | < 4.96 | < 4.96 | < 4.96 | 5.24 to 6.01 | 5.24 to 6.01 | < 4.96 | > 6.01 | < 4.96

Results, then the compound that gave them:

pIC50 (Tek) | pIC50 (c-Met) | pIC50 (EGFR) | pIC50 (Lck) | pIC50 (Itk) | pIC50 (AKT) | pIC50 (Kdr) | pIC50 (EPHB4) | pIC50 (Zap-70) | pIC50 (IGFR-1) | pIC50 (ErbB4) | SMILES
5.30 to 6.08 | < 5.03 | 5.14 to 5.30 | < 5.03 | < 5.03 | < 5.03 | 5.30 to 6.08 | < 5.03 | < 5.03 | < 5.03 |  | COc1cc(Nc2ncnc(N(Cc3ccccc3)c3nc4ccccc4[nH]3)n2)cc(OC)c1OC [Compound 373]
< 5.05 | < 5.05 | < 5.05 | 5.16 to 5.32 | < 5.05 | < 5.05 | 5.32 to 6.10 | < 5.05 | < 5.05 | < 5.05 |  | COc1cc(Nc2ncnc(-n3c(Nc4ccc(Cl)cc4)nc4ccccc43)n2)cc(OC)c1OC [Compound 375]
< 5.02 | < 5.02 | 5.29 to 6.07 | 5.13 to 5.29 | < 5.02 | < 5.02 | < 5.02 | 5.13 to 5.29 | < 5.02 | < 5.02 |  | COc1ccc(Nc2ncnc(N(CC(=O)OC(C)(C)C)c3ccc(Cl)cc3)n2)cc1OC [Compound 973]
